These results are taken from US11530206B2, “Phenylaminopyrimidine amide autophagy inhibitors and methods of use thereof” (Deciphera Pharmaceuticals, LLC, priority 2019, dated 2022).

The target of assay [1] is T1, ULK1 kinase (Homo sapiens, UniProt O75385).
T1 construct: purchased Eurofins 14-959
T1 sequence (O75385 with tags, fused parts or gaps): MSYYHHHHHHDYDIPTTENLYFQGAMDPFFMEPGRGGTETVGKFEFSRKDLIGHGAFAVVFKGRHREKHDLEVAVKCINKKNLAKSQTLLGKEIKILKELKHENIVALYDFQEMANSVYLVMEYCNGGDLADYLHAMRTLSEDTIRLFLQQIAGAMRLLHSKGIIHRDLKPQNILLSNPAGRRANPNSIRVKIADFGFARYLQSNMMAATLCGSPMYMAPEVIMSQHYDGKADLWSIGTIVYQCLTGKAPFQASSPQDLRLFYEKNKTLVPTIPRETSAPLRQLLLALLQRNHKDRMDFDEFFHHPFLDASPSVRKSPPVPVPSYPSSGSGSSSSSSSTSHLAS
Description: Biochemical assay for ULK1.2 (coupled pyruvate kinase/lactate dehydrogenase assay). The following applies: 19 nM ULK1 (residues 1-314, His tag), myelin basic protein, 1 mM ATP. How it is done: Biochemical Assay for ULK1.2 (SEQ. ID NO: 1)
Inhibition of ULK1 was measured by adding serial diluted test compound (final assay concentration of 1% DMSO). A decrease in absorption at 340 nm was monitored continuously for 6 hours at 30° C. on a multi-mode microplate reader (BioTek). The reaction rate was calculated using the 2-3 h time frame. The reaction rate at each concentration of compound was converted to percent inhibition using controls (i.e. reaction with no test compound and reaction with a known inhibitor) and IC50 values were calculated by fitting a four-parameter sigmoidal curve to the data using Prism (GraphPad software).

Assay [2] addresses T2, ULK2 kinase (Homo sapiens, UniProt Q8IYT8).
T2 construct: purchased Eurofins 14-772
Description: Biochemical assay for ULK2 (coupled pyruvate kinase/lactate dehydrogenase assay). As to conditions: 9.7 nM ULK2 (residues 1-306, GST and His tag), myelin basic protein, 1 mM ATP; read-out: ULK2.2. The method, then: Example 132. Biochemical Assay for ULK2 (SEQ. ID NO: 3)
Activity of ULK2 kinase was determined spectroscopically using a coupled pyruvate kinase/lactate dehydrogenase assay that continuously monitors the ATP hydrolysis-dependent oxidation of NADH (e.g., Schindler et al. Science (2000) 289: 1938-1942). Assays were conducted in 384-well plates (100 uL final volume) using 9.7 nM ULK2 (Eurofins CAT #14-772), 0.25 mg/mL myelin basic protein, 1.5 units pyruvate kinase, 2.1 units lactate dehydrogenase, 1 mM phosphoenol pyruvate, 0.28 mM NADH and 1 mM ATP in assay buffer (100 mM Tris, pH 7.5, 15 mM MgCl2, 0.5 mM DTT, 0.1% octyl-glucoside, 0.002% (w/v) BSA, and 0.002% Triton X-100). Inhibition of ULK2 was measured by adding serial diluted test compound (final assay concentration of 1% DMSO). A decrease in absorption at 340 nm was monitored continuously for 6 hours at 30° C. on a multi-mode microplate reader (BioTek). The reaction rate was calculated using the 2-3 h time frame. The reaction rate at each concentration of compound was converted to percent inhibition using controls (i.e. reaction with no test compound and reaction with a known inhibitor) and IC50 values were calculated by fitting a four-parameter sigmoidal curve to the data using Prism (GraphPad software).

Assay [3] relates to ULK kinase. In words: pATG13 levels of mutant KRas A549 cells after treatment with ULK inhibitors in combination with trametinib (ELISA). The assay is classed as cell-based, human. The following applies: A549 (KRAS mutant) lung cancer cells, 250 nM trametinib, overnight, pS318-ATG13. The gist of the method:
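Lysates with phosphatase/protease inhibitors assayed by pATG13 ELISA, A450 minus A540 background and blank-corrected. % ATG13 phosphorylation versus DMSO controls fitted to IC50.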

Assay [4] deals with ULK kinase. In words: pATG13 levels of mutant KRas MiaPaCa-2 cells after treatment with ULK inhibitors in combination with trametinib (ELISA). The assay is classed as cell-based, human. The following applies: MiaPaCa-2 pancreatic cancer cells, 250 nM trametinib, overnight, pS318-ATG13. Put shortly:
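MiaPaCa-2 cells in DMEM with 10% FBS and 2.5% horse serum were pretreated with trametinib or DMSO, then given a test-compound dose response overnight at 37° C. Lysates were assayed for phospho-ATG13 by ELISA (A450 minus A540 background, blank-corrected). % phosphorylation was calculated relative to controls and fitted to IC50.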
On the technique in general: ELISA stands for enzyme-linked immunosorbent assay.

The test system of assay [5] is ULK kinase. Description: pATG13 levels of mutant KRas HCT-116 cells after treatment with ULK inhibitors in combination with trametinib (ELISA). The assay is classed as cell-based, human. As to conditions: HCT-116 colon cancer cells, 250 nM trametinib, overnight, pS318-ATG13. How it is done:
The following day, 10 μL of media containing trametinib or DMSO as a control was added to wells. […] A dose response of a test compound (0.6 μL per well) was added. DMSO (0.6 μL) was added to control wells. The plate was briefly shaken to mix wells and then incubated at 37° C. overnight. The next day, the media was aspirated and cells were washed with Dulbecco's Phosphate Buffered Saline (Gibco). Cells were lysed using MPER lysis buffer (Pierce, Rockford, Ill.) containing Halt Phosphatase and Protease Inhibitors (Pierce, Rockford, Ill.) and Phosphatase inhibitor cocktail 2 (Sigma, St. Louis, Mo.) at 4° C. for 10 minutes with shaking.
(§1) Plate wells were washed with ELISA wash buffer. Cell lysate was added to wells and incubated at room temperature for 2 hours. Plate wells were washed with ELISA wash buffer. […] Plate wells were washed with ELISA wash buffer. […] Plate wells were washed with ELISA wash buffer. […] The reaction was stopped with 2N Sulfuric Acid. The plate was analyzed at on a plate reader measuring absorbance at 450 nm and 540 nm (background). Signal was calculated by first subtracting the background absorbance at 540 nm from the absorbance at 450 nm for each well. Next, the background corrected absorbance at 450 nm from blank wells was subtracted from test wells. Data was compared to control wells to determine % ATG13 phosphorylation. GraphPad Prism was used to calculate IC50 values.

Assay [6] deals with ULK kinase. Description: pATG13 levels of mutant BRAF A375 cells after treatment with ULK inhibitors in combination with trametinib (ELISA). The assay is classed as cell-based, human. As to conditions: A375 malignant melanoma cells (mutant BRAF), 250 nM trametinib, overnight, pS318-ATG13. The method, then:
(§2) A375 human malignant melanoma cancer cells (20000 cells/well) were added to a 96-well tissue-culture treated plate in 100 μL of pre-warmed DMEM medium supplemented with 10% characterized fetal bovine serum (Invitrogen, Carlsbad, Calif.), 100 units/mL penicillin G, and 100 μg/mL streptomycin and allowed to grow overnight at 37° C., 5% CO2, and 95% humidity. The following day, 100 μL of media containing trametinib or DMSO as a control was added to wells. […] A dose response of a test compound (0.5 μL per well) was added. DMSO (0.5 μL) was added to control wells. The plate was briefly shaken to mix wells and then incubated at 37° C. overnight. The next day, the media was aspirated and cells were washed with Dulbecco's Phosphate Buffered Saline (Gibco). Cells were lysed using MPER lysis buffer (Pierce, Rockford, Ill.) containing Halt Phosphatase and Protease Inhibitors (Pierce, Rockford, Ill.) and Phosphatase inhibitor cocktail 2 (Sigma, St. Louis, Mo.) at 4° C. for 10 minutes with shaking.
as §1

For assay [7], the target named is T3, ULK1 kinase (Homo sapiens, UniProt O75385, E37A/K38A).
T3 construct: purchased Beryllium
T3 sequence (O75385 1-283 E37A/K38A): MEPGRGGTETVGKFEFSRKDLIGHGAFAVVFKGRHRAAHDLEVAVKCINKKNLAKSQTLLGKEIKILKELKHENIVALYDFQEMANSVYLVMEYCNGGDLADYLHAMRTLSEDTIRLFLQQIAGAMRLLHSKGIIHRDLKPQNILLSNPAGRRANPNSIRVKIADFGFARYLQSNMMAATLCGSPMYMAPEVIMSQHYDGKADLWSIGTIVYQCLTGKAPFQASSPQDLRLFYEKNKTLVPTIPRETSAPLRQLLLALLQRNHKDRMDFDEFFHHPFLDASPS
Description: Biochemical assay for ULK1.3 (coupled pyruvate kinase/lactate dehydrogenase assay, peptide substrate). The following applies: 0.1 nM ULK1 (residues 1-283), 1 mM ATP. Put shortly:
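ULK1.3 activity was followed by continuous decrease in 340 nm absorbance over 6 h at 30 °C with 1% DMSO final. Rates were taken from the 2–3 h window and converted to percent inhibition against no-compound and known-inhibitor controls. IC50 values came from curve fitting.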

Assay [8] relates to ULK kinase. Description: pATG13 levels of mutant HRas T24 cells after treatment with ULK inhibitors in combination with trametinib (ELISA). The following applies: T24 urinary bladder cancer cells (mutant HRas), 250 nM trametinib, overnight, pS318-ATG13. The assay is classed as cell-based, human. The method, then: as §2, with “T24” for “A375”, “urinary bladder” for “malignant melanoma”, “(25000” for “(20000”
as §1

Assay [9] deals with T4, LRRK2 kinase (Homo sapiens, UniProt Q5S007).
T4 construct: purchased Thermo Fisher
In words: Biochemical assay for LRRK2 (coupled pyruvate kinase/lactate dehydrogenase assay). As to conditions: 26.4 nM LRRK2 (residues 970-2528), peptide substrate, 1 mM ATP. Put shortly:
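Recombinant LRRK2 (26.4 nM) with 0.1 mM peptide substrate and 1 mM ATP in Tris pH 7.5/MgCl2 buffer; ADP production coupled via PK/LDH to NADH oxidation, A340 read continuously 6 h at 30 °C. Rates from 2–3 h window converted to % inhibition versus no-compound and reference-inhibitor controls; IC50 fitted.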

T2 sequence (Q8IYT8 with tags, fused parts or gaps): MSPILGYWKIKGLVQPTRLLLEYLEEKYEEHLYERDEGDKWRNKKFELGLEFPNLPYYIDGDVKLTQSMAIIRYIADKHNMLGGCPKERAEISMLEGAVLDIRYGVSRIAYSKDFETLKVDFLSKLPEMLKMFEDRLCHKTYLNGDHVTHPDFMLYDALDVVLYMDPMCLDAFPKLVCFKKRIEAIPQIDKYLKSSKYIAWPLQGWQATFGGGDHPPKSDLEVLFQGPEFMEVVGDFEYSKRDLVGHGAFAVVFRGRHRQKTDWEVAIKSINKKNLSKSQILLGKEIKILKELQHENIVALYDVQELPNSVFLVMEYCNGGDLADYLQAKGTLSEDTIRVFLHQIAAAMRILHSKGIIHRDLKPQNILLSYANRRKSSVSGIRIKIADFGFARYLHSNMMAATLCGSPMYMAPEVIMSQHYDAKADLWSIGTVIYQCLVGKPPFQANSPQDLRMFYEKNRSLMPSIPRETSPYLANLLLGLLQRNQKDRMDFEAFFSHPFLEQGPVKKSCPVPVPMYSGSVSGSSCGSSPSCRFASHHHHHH
T4 sequence (Q5S007 with tags, fused parts or gaps): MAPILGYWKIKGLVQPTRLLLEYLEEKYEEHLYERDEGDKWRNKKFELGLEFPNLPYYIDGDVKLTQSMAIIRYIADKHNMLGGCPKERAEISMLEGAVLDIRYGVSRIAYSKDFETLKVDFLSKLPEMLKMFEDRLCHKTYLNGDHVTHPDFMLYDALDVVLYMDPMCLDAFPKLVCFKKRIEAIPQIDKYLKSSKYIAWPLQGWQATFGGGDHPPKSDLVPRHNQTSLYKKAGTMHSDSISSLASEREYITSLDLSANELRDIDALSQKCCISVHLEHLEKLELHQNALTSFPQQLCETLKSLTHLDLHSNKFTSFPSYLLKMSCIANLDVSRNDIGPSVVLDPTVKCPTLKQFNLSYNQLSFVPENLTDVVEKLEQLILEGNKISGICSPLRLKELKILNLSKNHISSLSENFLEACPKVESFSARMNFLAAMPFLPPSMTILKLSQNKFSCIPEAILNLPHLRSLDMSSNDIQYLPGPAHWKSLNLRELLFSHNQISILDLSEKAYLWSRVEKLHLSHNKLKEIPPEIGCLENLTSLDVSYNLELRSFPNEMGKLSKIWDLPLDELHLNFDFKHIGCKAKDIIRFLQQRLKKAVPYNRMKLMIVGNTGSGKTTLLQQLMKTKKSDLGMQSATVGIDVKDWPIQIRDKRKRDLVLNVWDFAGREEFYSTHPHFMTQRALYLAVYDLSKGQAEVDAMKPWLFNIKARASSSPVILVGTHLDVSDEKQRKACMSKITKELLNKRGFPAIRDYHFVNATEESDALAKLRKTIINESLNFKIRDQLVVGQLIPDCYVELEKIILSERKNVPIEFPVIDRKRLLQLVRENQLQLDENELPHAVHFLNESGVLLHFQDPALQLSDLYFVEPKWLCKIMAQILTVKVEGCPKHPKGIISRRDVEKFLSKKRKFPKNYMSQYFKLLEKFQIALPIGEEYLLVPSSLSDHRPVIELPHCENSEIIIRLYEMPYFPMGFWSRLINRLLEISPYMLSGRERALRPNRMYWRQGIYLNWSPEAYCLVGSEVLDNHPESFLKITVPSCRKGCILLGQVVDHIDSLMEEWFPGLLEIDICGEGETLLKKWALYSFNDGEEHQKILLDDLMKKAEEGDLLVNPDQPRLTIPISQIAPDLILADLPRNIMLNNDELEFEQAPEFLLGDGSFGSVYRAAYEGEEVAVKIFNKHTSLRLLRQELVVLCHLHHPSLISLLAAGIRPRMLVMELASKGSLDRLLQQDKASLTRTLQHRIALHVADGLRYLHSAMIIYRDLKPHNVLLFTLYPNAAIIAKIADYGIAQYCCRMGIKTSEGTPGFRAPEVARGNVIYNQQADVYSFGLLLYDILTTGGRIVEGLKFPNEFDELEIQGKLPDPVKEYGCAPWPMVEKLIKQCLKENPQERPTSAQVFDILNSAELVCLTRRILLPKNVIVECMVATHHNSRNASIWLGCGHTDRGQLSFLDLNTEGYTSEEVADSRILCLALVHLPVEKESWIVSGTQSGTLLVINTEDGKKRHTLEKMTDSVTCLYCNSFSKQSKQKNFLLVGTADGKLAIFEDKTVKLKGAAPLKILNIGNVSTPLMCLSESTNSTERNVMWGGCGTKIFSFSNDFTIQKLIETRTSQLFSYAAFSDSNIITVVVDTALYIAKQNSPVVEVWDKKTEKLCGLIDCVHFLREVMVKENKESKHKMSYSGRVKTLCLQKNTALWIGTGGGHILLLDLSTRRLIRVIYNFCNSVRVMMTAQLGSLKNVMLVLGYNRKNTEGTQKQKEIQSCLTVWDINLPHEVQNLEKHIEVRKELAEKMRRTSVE

As to `CCc1cc(N2CCN(C)CC2)ccc1Nc1ncc(C(F)(F)F)c(NCCCN2CCCCC2=O)n1` [Example 11], the IC50 in assay [1] was in the range of 1 to 25 nM; in [2] it was 1 to 25 nM; in assay [3] it was 100 to 300 nM; in assay [4], 10 to 100 nM; in [5], 10 to 100 nM; in assay [6] it was 10 to 100 nM.

On to `CCN1CCN(c2ccc(Nc3ncc(C(F)(F)F)c(NCCCN4CCCOCC4=O)n3)c(C(C)C)c2)CC1` [Example 60], for which the IC50 was 1 to 25 nM in [1]; 100 to 300 nM in assay [3]; 100 to 300 nM in [4]; 10 to 100 nM in assay [5]; 300 to 600 nM in [6].

For `CCc1cc(N2CCN(C)CC2)ccc1Nc1ncc(Br)c(NCCCN2CCCCC2=O)n1` [Example 23, 1-(3-((5-bromo-2-((2-ethyl-4-(4-methylpiperazin-1-yl)phenyl)amino)pyrimidin-4-yl)amino)propyl)piperidin-2-one], the IC50 in assay [1] lay within 25 to 100 nM; in [2] it was 100 to 500 nM; in [3] it was 10 to 100 nM; in [4], 10 to 100 nM; in assay [5] it was 10 to 100 nM; in assay [6], 10 to 100 nM.

As for `O=C1CCCCN1CCCNc1nc(Nc2ccc(N3CCNCC3)cc2C2CC2)ncc1C(F)(F)F` [Example 34, 1-(3-((2-((2-cyclopropyl-4-(piperazin-1-yl)phenyl)amino)-5-(trifluoromethyl)pyrimidin-4-yl)amino)propyl)piperidin-2-one], the IC50 lay in the range of 1 to 25 nM in [7]; 10 to 100 nM in [3]; 10 to 100 nM in assay [4]; 10 to 100 nM in assay [5]; 100 to 300 nM in [8].

For the compound `CCN1CCN(c2ccc(Nc3ncc(C(F)(F)F)c(NCCCN4CCOCCC4=O)n3)c(C(C)C)c2)CC1` [Example 73], the IC50 in assay [1] lay within 1 to 25 nM; in assay [2], 100 to 500 nM; in assay [3], 100 to 300 nM; in [4] it was 100 to 300 nM; in assay [5] it was 10 to 100 nM; in [6], 10 to 100 nM.

Turning to `CN1CCN(c2ccc(Nc3ncc(C(F)(F)F)c(NCCCN4CCOCC4=O)n3)c(C3CC3)c2)CC1` [Example 47], the IC50 in assay [7] lay in the range of 25 to 100 nM; in [3] it was 100 to 300 nM; in assay [4], 300 to 600 nM; in assay [5], 100 to 300 nM; in assay [6], 300 to 600 nM; in assay [9], 100 to 300 nM.
